This assay addresses T1, human oxytocin receptor (Homo sapiens, UniProt P30559).
T1 construct: host or cells: CHO cells (pcDNA3.1 vector)
T1 sequence (P30559 1-389): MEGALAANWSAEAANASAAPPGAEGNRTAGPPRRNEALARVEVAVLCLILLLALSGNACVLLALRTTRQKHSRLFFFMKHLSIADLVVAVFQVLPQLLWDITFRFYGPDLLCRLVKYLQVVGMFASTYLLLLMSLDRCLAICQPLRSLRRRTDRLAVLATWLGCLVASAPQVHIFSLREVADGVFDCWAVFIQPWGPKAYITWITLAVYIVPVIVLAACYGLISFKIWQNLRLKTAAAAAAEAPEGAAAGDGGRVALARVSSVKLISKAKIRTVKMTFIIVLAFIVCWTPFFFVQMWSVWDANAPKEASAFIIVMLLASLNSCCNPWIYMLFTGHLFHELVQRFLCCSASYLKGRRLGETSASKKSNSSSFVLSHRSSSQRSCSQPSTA
Put plainly: Oxytocin binding in Chinese Hamster Ovary cell membranes expressing human oxytocin receptors. The settings on record: 100 nM, CHO cell membranes, [3H]oxytocin, values without parentheses, read-out: OT % inhibition @ 100% nM.

These results are taken from US7109193B2, “Tricyclic diazepines tocolytic oxytocin receptor antagonists” (Wyeth, priority 2001, dated 2006).

For the molecule `Cc1ccccc1-c1ccc(C(=O)N2Cc3ccc(C(=O)NCCCN(C)C)n3Cc3ccccc32)cc1C` [Example 73, N-[3-(Dimethylamino)propyl]-10-[(2,2′-dimethyl[1,1′-biphenyl]-4-yl)carbonyl]-10,11-dihydro-5H-pyrrolo[2,1-c][1,4]benzodiazepine-3-carboxamide], the inhibition at 0.1 µM was found to be 85%.

Consider `COc1cccc(-c2ccc(C(=O)N3Cc4ccc(C(=O)NCCCN(C)C)n4Cc4ccccc43)cc2C)c1` [Example 74, N-[3-(Dimethylamino)propyl]-10-[(3′-methoxy-2-methyl[1,1′-biphenyl]-4-yl)carbonyl]-10,11-dihydro-5H-pyrrolo[2,1-c][1,4]benzodiazepine-3-carboxamide], for which the inhibition at 0.1 µM turned out to be 45%.

On to `COc1ccccc1-c1ccc(C(=O)N2Cc3ccc(C(=O)NCCCN(C)C)n3Cc3ccccc32)cc1` [Example 75, N-[3-(Dimethylamino)propyl]-10-[(2′-methoxy[1,1′-biphenyl]-4-yl)carbonyl]-10,11-dihydro-5H-pyrrolo[2,1-c][1,4]benzodiazepine-3-carboxamide], for which the inhibition at 0.1 µM was 66%.

For the molecule `Cc1ccccc1-c1ccc(C(=O)N2Cc3ccc(C(=O)NCCCN(C)C)n3Cc3ccccc32)cc1` [Example 76, N-[3-(Dimethylamino)propyl]-10-[(2′-methyl[1,1′-biphenyl]-4-yl)carbonyl]-10,11-dihydro-5H-pyrrolo[2,1-c][1,4]benzodiazepine-3-carboxamide], the inhibition at 0.1 µM was determined as 65%.

For the molecule `COc1cc(C(=O)N2Cc3ccc(C(=O)NCCCN(C)C)n3Cc3ccccc32)ccc1-c1ccccc1C` [Example 77, N-[3-(Dimethylamino)propyl]-10-[(2-methoxy-2′-methyl[1,1′-biphenyl]-4-yl)carbonyl]-10,11-dihydro-5H-pyrrolo[2,1-c][1,4]benzodiazepine-3-carboxamide], the inhibition at 0.1 µM was 65%.

In the case of `COc1cc(-c2ccccc2C)c(Cl)cc1C(=O)N1Cc2ccc(C(=O)NCCCN(C)C)n2Cc2ccccc21` [Example 78, 10-[(6-Chloro-3-methoxy-2′-methyl[1,1′-biphenyl]-4-yl)carbonyl]-N-[3-(dimethylamino)propyl]-10,11-dihydro-5H-pyrrolo[2,1-c][1,4]benzodiazepine-3-carboxamide], the inhibition at 0.1 µM turned out to be 62%.

Regarding `CC(C)N1CCN(C(=O)c2ccc3n2Cc2ccccc2N(C(=O)c2ccc(-c4cccc5ccccc45)cc2Cl)C3)CC1` [Example 243, {10-[2-Chloro-4-(1-naphthyl)benzoyl]-10,11-dihydro-5H-pyrrolo[2,1-c][1,4]benzodiazepin-3-yl}(4-isopropyl-1-piperazinyl)methanone], the inhibition at 0.1 µM is 17%.

Regarding `Cc1ccccc1-c1ccc(C(=O)N2Cc3ccc(C(=O)N4CCN(CCCN(C)C)CC4)n3Cc3ccccc32)cc1C` [Example 247, {4-[3-(Dimethylamino)propyl]-1-piperazinyl}{10-[(2,2′-dimethyl[1,1′-biphenyl]-4-yl)carbonyl]-10,11-dihydro-5H-pyrrolo[2,1-c][1,4]benzodiazepin-3-yl}methanone], the inhibition at 0.1 µM amounted to 97%.

Turning to `COc1cccc(-c2ccc(C(=O)N3Cc4ccc(C(=O)N5CCN(CCCN(C)C)CC5)n4Cc4ccccc43)cc2C)c1` [Example 248, {4-[3-(Dimethylamino)propyl]-1-piperazinyl}{10-[(3′-methoxy-2-methyl[1,1′-biphenyl]-4-yl)carbonyl]-10,11-dihydro-5H-pyrrolo[2,1-c][1,4]benzodiazepin-3-yl}methanone], the inhibition at 0.1 µM came out at 77%.

`Cc1ccccc1-c1ccc(C(=O)N2Cc3ccc(C(=O)N4CCN(CCCN(C)C)CC4)n3Cc3ccccc32)cc1` [Example 249, {4-[3-(Dimethylamino)propyl]-1-piperazinyl}{10-[(2′-methyl[1,1′-biphenyl]-4-yl)carbonyl]-10,11-dihydro-5H-pyrrolo[2,1-c][1,4]benzodiazepin-3-yl}methanone]: the inhibition at 0.1 µM is 18%.
